Earlier results as cited in US11559510B2, “Isoflavonoid composition with improved pharmacokinetics” (NOXOPHARM LIMITED, priority 2016, dated 2023).

Assays:
cancer cells = details: cited from earlier work
[1] = cited from earlier work

SMILES: Oc1ccc(C2=Cc3ccc(O)cc3OC2)cc1 [Idronoxil, 2H-1-Benzopyran-7-0,1,3-(4-hydroxyphenyl)]
- concentration where it kills about 10% of the cancer cells (sensitising use) (cancer cells; cancer cells in cell culture): 50 to 300 ng/mL
- concentration that kills 50% of cancer cells in cell culture (IC50) (cancer cells; depending largely on the tumour type): 0.2 to 1.2 µg/mL
- direct cytotoxic or sensitising effect when drug added in a pulsatile manner (cancer cells; left in cancer cell culture for 2-3 hours and then removed): largely ineffective
- plasma elimination half-life ([1]; bolus IV administration): short
- time after administration at which free idronoxil is detected in plasma ([1]; given orally, most patients): ≤ 30 min
- absolute oral bioavailability ([1]; given orally): low
- blood levels readily attained ([1]; humans treated both orally and intravenously): 50 µM
